Reference: patent US20230241000A1, “GSK3 INHIBITOR-LOADED NANO FORMULATIONS AS A CANCER IMMUNOTHERAPEUTIC” (The Regents of the University of California, priority 2020, published 2023)
“Also recorded” adds a separate entry of the source.

Assays:
[1] = system: CD8+ T-cells in MC38 tumors; assay: Flow cytometry of tumor-infiltrating CD8+ T-cells in MC38 tumors; assay type: in vivo, C57BL/6 mice
Excerpt: In order to address the change in the immunological landscape with treatment, we asked whether sAZD1080 could impact the immune parameters that underpin treatment efficacy for immune checkpoint blocking antibodies. These include the CD8^+ cell number, the abundance of PD-1 expression on these cells, perforin release and the generation of cancer cell death, as reflected by activated caspase 3. For the first analysis, tumor cell digests were used to assess the number of CD8^+/CD107a^+/granzyme B^+ lymphocytes by flow cytometry (14, 30). […] In order to assess the status of PD-1 expression on CD8+ cells, flow cytometry was used to assess the % of […] cells in the tumor digests (14, 31).
Tumors were harvested from MC38 mice after sacrifice. Tumors larger than 100 mm^3 were divided in two, with one half preserved for histology and the other half used to conduct flow cytometry. To prepare samples for flow cytometry, tumor chunks of 2-3 mm^3 were incubated in an enzyme cocktail (1 mg/mL collagenase type IV, 2000 U DNase type IV, 0.1 mg/mL hyaluronidase type V in 1×HBSS) for 1 hour, and the digests passed through a 70 μm nylon filter. Cells were pelleted and washed in HBSS.
Cells were diluted in cell staining buffer, pelleted by centrifuging at 350×g for 5 minutes, and washed twice. […]

Pdcd1 expression = assay: RT-qPCR of Pdcd1 in anti-CD3 activated primary murine T-cells; assay type: cell-based, C57BL/6 mouse; settings: 10 μM, 72 hours, normalized against Gapdh
Procedure: This is compatible with the translational expression of T-bet, a transcription factor that interferes in PD-1 expression (FIG. 1, panel B).
Wells of a 96-well tissue culture plate were coated with anti-mouse CD3 antibody (Ultra-LEAF, Biolegend). 7.5 μL of 1 mg/mL antibody solution was diluted in 1 mL of 1×PBS, before 50 μL of the dilution was added to each plate well for 2 hours at 37° C. The wells were then thoroughly washed 3× with 1×PBS.
T-cells were extracted from C57BL/6 mouse spleens, using a standard procedure with minor modifications (71). Two mouse spleens were mechanically disrupted and the released cells were passed through a 70 μm filter. Red blood cells were lysed using RBC lysis buffer (eBioscience) at 4° C. for 5 minutes. 10 mL of 1×PBS was added to stop the lysis process, following which cells were pelleted at 300×g for 5 minutes. […]
Cells were collected and RNA was extracted using Direct-zol RNA MiniPrep Plus kits (Zymo), as per the manufacturer's instructions. Extracted RNA was converted into cDNA using SuperScript III First-Strand Synthesis System kits (Invitrogen). cDNA from treated T-cells was analyzed by RT-PCR using a LightCycler 480 instrument (Roche) and the LightCycler 480 SYBR Green I Master kit (Roche), per manufacturer's instructions. cDNA was analyzed using forward and reverse primers for Pdcd1, Tbx21, and Gapdh as a control, as described previously (10, 14). […]

[2] = Remote loading of GSK3 inhibitors into silicasomes: encapsulation efficiency and loading capacity; assay type: physicochemical
Procedure: The overall scheme for the synthesis of silicasome carriers to deliver GSK3 inhibitors is outlined in FIG. 3. Briefly, a large batch (i.e. 120 g) synthesis of bare particles was carried out as previously, yielding ˜70 nm MSNPs (FIG. 3, panel A) (22). […] 20 mg soaked-in MSNPs were then used together with an ethanol suspended lipid solution, comprised of a mixture of 60 mg DSPC:Cholesterol:PE-PEG2000 (molar ratio of 6:4:0.3), for coating with a lipid bilayer by a flow through sonication procedure (FIG. 3, panel B). Following the removal of the non-encapsulated trapping agent, AZD2858, AZD1080, LY2090314, and 1-Azakenpaullone were dissolved in 0.9% saline and incubated with the silicasome carrier to assess the loading capacity in response to different feed weight percentages (FIG. 11).
Four GSK3 inhibitor-laden silicasome formulations were analyzed to assess encapsulation efficiency and loading capacity. 100 μL of the silicasomes suspension at 10 mg/mL in 0.9% NaCl (1 mg silicasomes) was added to AZD1080, AZD2858, LY2090314, and 1-azakenpaullone solutions, which were prepared by adding 50, 100 or 200 μg of each inhibitor to 900 μL water. These drug mass quantities provided feed weight percentages of 5, 10, and 20%, in comparison to the silicasome mass. Following execution of the remote loading procedure as detailed above, the crude solutions were used to assess absorbance in a glass bottom 96-well plate (Total Drug Absorbance). Silicasomes were centrifuged at 21,000×g for 15 minutes to pellet the particles. After removal of the supernatant, the silicasomes were re-suspended in aa fresh 0.9% NaCl solution. This was repeated three times to remove any unloaded inhibitor. The silicasome solution was then sampled and absorbance was measured to determine Loaded Drug Absorbance. Concentration-matched unloaded ‘blank’ silicasomes also had absorbance measured (Silicasome Blank Absorbance). Encapsulation efficiency was calculated by the following formula: […]
All measurements were taken using a SpectraMax M5 plate reader (Molecular Devices). All solutions were diluted 1/10 in 0.9% NaCl solution prior to absorbance reads. The absorbances used for each compound were: 418 nm for AZD1080, 383 nm for AZD2858, 213 nm for LY2090314, and 334 nm for 1-azakenpaullone.

[3] = humans; literature (15); cited from earlier work

## N#Cc1ccc2[nH]c(O)c(-c3ccc(CN4CCOCC4)cn3)c2c1 [AZD1080]
[1]
  % of CD8/PD-1+ cells in the tumor digests: did not impact
Pdcd1 expression
  reduction in Pdcd1 mRNA expression: ~6 fold
[2]; AZD1080 remote loaded in silicasome, feed weight of 5%, ± SD, 3 samples
  Encapsulation Efficiency: 62.5%
[2]; AZD1080 remote loaded in silicasome, ± SD, 3 samples
  Loading Capacity: 8.1 w/w %
[2]; dissolved in 0.9% saline, incubated with silicasome carrier, feed weight %
  solubility during remote loading (in words): good aqueous solubility
[2]; remote loading at 5, 10 or 20 feed weight %
  encapsulation efficiency in silicasomes (in words): highest encapsulation efficiency; also recorded: moderate efficiency
[3]
  toxicity leading to discontinuation in phase I clinical trial: nephrotoxicity
